Laboratory results reported in patent US5362634A, “Process for producing A83543 compounds” (DowElanco, priority 1991, dated 1994).

How the values were obtained:
[1] = test system: neonate CBW (cotton bollworm) larvae; assay: Topical test against neonate CBW larvae; type: in vivo, Heliothis zea; conditions: 24 h, 1 day
Procedure: (§1) Each test compound was formulated by dissolving the compound in an acetone/alcohol (1:1) mixture containing 23 g of "Toximul R" (sulfonate/nonionic emulsifier blend) and 13 g of "Toximul S" (sulfonate/nonionic emulsifier blend) per liter. These mixtures were then diluted with water to give the indicated concentrations.
(§2) Additional insects were evaluated using similar formulations and evaluation procedures, with the exceptions noted.
(§3) After standard exposure periods, percent mortality was evaluated. The following abbreviations are used:
^b Mean of two replicates tested
^c Treated with 1 mL of formulated A83543A

[2] = test system: neonate CBW (cotton bollworm) larvae; assay: Percent control of neonate CBW larvae by A83543 components, topical pipet method; type: in vivo, Heliothis zea; conditions: topical, 24 h, read-out: Percent Control
Procedure: as §1, §2, §3
^1 Treatments with the same letter in parentheses are similar at the
^2 Topical pipet method with 20 larve/replicate and 4 replicates; one
day between treatment and observation.

[3] = test system: CRW (Southern corn rootworm); assay: Greenhouse test against CRW; type: in vivo, Diabrotica undecimpunctata howardi
Procedure: as §1, §2
After standard exposure periods, percent mortality was evaluated.

[4] = test system: mixture of soybean loopers (75%) and fall armyworm (25%); assay: Field trial, soybean loopers and fall armyworm on soybean; type: in vivo
Procedure: A83543A was evaluated in field trials.

adult stable fly (ASF) = assay: Sheep systemic test, adult stable fly; type: in vivo; conditions: Stomoxys calcitrans, 24 h
Procedure: (§4) Blood is drawn from the guinea pigs at 30 minutes except as noted, and the samples of blood are centrifuged. Dental wicks are saturated with the blood serum, and then exposed in Petri dishes to adult stable flies; blow fly larvae are exposed in test tubes. After 24 and 48 hours, the insects are examined, and the number of dead are counted. The results of the tests are recorded as the percent of the insects which are killed.
Tests are carried out in sheep using the test method described supra in the Guinea Pig Test description. Test compound is administered by intraperitoneal or intravenous injection or intraruminally; blood samples are drawn at 24 hours in these tests.

larval blow fly = assay: Insecticidal assay in blood of sheep challenged with Haemonchus contortus, larval blow fly; type: in vivo
Procedure: as §4
Tests are carried out in sheep using the test method described supra in the Guinea Pig Test description. […]
^b Amount (mg/kg) times number of doses administered
^c Times postadministration at which blood is drawn

SAW (Southern armyworm) = assay: Greenhouse test against SAW; type: in vivo; conditions: Spodoptera eridania, bushbean

## CC[C@H]1CCC[C@H](O[C@H]2CC[C@H](N(C)C)[C@@H](C)O2)[C@@H](C)C(=O)C2=C[C@@H]3[C@@H](C=C[C@@H]4C[C@@H](O[C@@H]5O[C@@H](C)[C@H](OC)[C@@H](OC)[C@H]5OC)C[C@@H]34)[C@@H]2CC(=O)O1 [A83543A]
[1]; 0.50 ppm, second series
  inhibition at 0.5 ppm: 10%
[1]; first series, mean of two replicates
  inhibition at 1 ppm: 20%
[1]; second series
  inhibition at 1 ppm: 40%
  inhibition at 5 ppm: 80%
  inhibition at 10 ppm: 100%
  inhibition at 50 ppm: 100%
  inhibition at 100 ppm: 70%
[1]; first series
  inhibition at 5 ppm: 100%
  inhibition at 10 ppm: 100%
  inhibition at 50 ppm: 100%
  inhibition at 100 ppm: 100%
[2]
  mortality at 0.5 ppm: 55%
  mortality at 1 ppm: 100%
  mortality at 5 ppm: 100%
  mortality at 10 ppm: 100%
[3]; 3 ppm, second series
  inhibition at 3 ppm: 0%
[3]; 3.75 ppm
  inhibition at 3.75 ppm: 0%
[3]; 6 ppm, second series
  inhibition at 6 ppm: 30%
[3]; 7.5 ppm
  inhibition at 7.5 ppm: 10%
[3]; 15 ppm
  inhibition at 15 ppm: 50%
[3]; 30 ppm
  inhibition at 30 ppm: 100%
[4]
  activity in field trials: showed activity
Adult stable fly (ASF); 1.0 mg/kg IV
  mortality at 1 mg/kg: 10%
Adult stable fly (ASF); 10 mg/kg IP
  mortality at 10 mg/kg: 0%
Adult stable fly (ASF); 10 mg/kg IR
  mortality at 10 mg/kg: 0%
Adult stable fly (ASF); 30 mg/kg IP
  mortality at 30 mg/kg: 0%
Adult stable fly (ASF); 30 mg/kg IR
  mortality at 30 mg/kg: 30%
Adult stable fly (ASF); 50 mg/kg IR
  mortality at 50 mg/kg: 70%
Adult stable fly (ASF); 2 × 25 mg/kg IR
  mortality at 25 mg/kg: 90%
Larval blow fly; 1 × 1 mg/kg IV, 35 min, L, 24-hour exposure
  Percent Insecticide Mortality: 25%
Larval blow fly; 1 × 1 mg/kg IV, 35 min, L, 48-hour exposure
  Percent Insecticide Mortality: 25%
Larval blow fly; 1 × 1 mg/kg IV, 5 hr, L, 24-hour exposure
  Percent Insecticide Mortality: 10%
Larval blow fly; 1 × 1 mg/kg IV, 5 hr, L, 48-hour exposure
  Percent Insecticide Mortality: 10%
Larval blow fly; 1 × 1 mg/kg IV, Day 0, L, 24-hour exposure
  Percent Insecticide Mortality: 0%
Larval blow fly; 1 × 1 mg/kg IV, Day 0, L, 48-hour exposure
  Percent Insecticide Mortality: 0%
Larval blow fly; 1 × 1 mg/kg IV, Day 1, L, 24-hour exposure
  Percent Insecticide Mortality: 0%
Larval blow fly; 1 × 1 mg/kg IV, Day 1, L, 48-hour exposure
  Percent Insecticide Mortality: 0%
Larval blow fly; 1 × 1 mg/kg IV, Day 2, L, 24-hour exposure
  Percent Insecticide Mortality: 0%
Larval blow fly; 1 × 1 mg/kg IV, Day 2, L, 48-hour exposure
  Percent Insecticide Mortality: 0%
Larval blow fly; 1 × 1 mg/kg IV, Day 3, L, 24-hour exposure
  Percent Insecticide Mortality: 0%
Larval blow fly; 1 × 1 mg/kg IV, Day 3, L, 48-hour exposure
  Percent Insecticide Mortality: 0%
Larval blow fly; 1 × 1 mg/kg IV, Day 4, L, 24-hour exposure
  Percent Insecticide Mortality: 0%
Larval blow fly; 1 × 1 mg/kg IV, Day 4, L, 48-hour exposure
  Percent Insecticide Mortality: 0%
Larval blow fly; 1 × 1 mg/kg IV, Day 5, L, 24-hour exposure
  Percent Insecticide Mortality: 0%
Larval blow fly; 1 × 1 mg/kg IV, Day 5, L, 48-hour exposure
  Percent Insecticide Mortality: 0%
Larval blow fly; 25 × 2 mg/kg IR, 35 min, L, 24-hour exposure
  Percent Insecticide Mortality: 0%
Larval blow fly; 25 × 2 mg/kg IR, 35 min, L, 48-hour exposure
  Percent Insecticide Mortality: 0%
Larval blow fly; 25 × 2 mg/kg IR, 5 hr, L, 24-hour exposure
  Percent Insecticide Mortality: 25%
Larval blow fly; 25 × 2 mg/kg IR, 5 hr, L, 48-hour exposure
  Percent Insecticide Mortality: 50%
Larval blow fly; 25 × 2 mg/kg IR, Day 0, L, 24-hour exposure, 0 min
  Percent Insecticide Mortality: 0%
Larval blow fly; 25 × 2 mg/kg IR, Day 0, L, 48-hour exposure
  Percent Insecticide Mortality: 0%
Larval blow fly; 25 × 2 mg/kg IR, Day 1, L, 24-hour exposure
  Percent Insecticide Mortality: 100%
Larval blow fly; 25 × 2 mg/kg IR, Day 1, L, 48-hour exposure
  Percent Insecticide Mortality: 100%
Larval blow fly; 25 × 2 mg/kg IR, Day 2, L, 24-hour exposure
  Percent Insecticide Mortality: 90%
Larval blow fly; 25 × 2 mg/kg IR, Day 2, L, 48-hour exposure
  Percent Insecticide Mortality: 100%
Larval blow fly; 25 × 2 mg/kg IR, Day 3, L, 24-hour exposure
  Percent Insecticide Mortality: 90%
Larval blow fly; 25 × 2 mg/kg IR, Day 3, L, 48-hour exposure
  Percent Insecticide Mortality: 100%
Larval blow fly; 25 × 2 mg/kg IR, Day 4, L, 24-hour exposure
  Percent Insecticide Mortality: 60%
Larval blow fly; 25 × 2 mg/kg IR, Day 4, L, 48-hour exposure
  Percent Insecticide Mortality: 90%
Larval blow fly; 25 × 2 mg/kg IR, Day 5, L, 24-hour exposure
  Percent Insecticide Mortality: 50%
Larval blow fly; 25 × 2 mg/kg IR, Day 5, L, 48-hour exposure
  Percent Insecticide Mortality: 75%
Larval blow fly; 50 × 1 mg/kg IP, 35 min, L, 24-hour exposure
  Percent Insecticide Mortality: 0%
Larval blow fly; 50 × 1 mg/kg IP, 35 min, L, 48-hour exposure
  Percent Insecticide Mortality: 10%
Larval blow fly; 50 × 1 mg/kg IP, 5 hr, L, 24-hour exposure
  Percent Insecticide Mortality: 10%
Larval blow fly; 50 × 1 mg/kg IP, 5 hr, L, 48-hour exposure
  Percent Insecticide Mortality: 10%
Larval blow fly; 50 × 1 mg/kg IP, Day 0, L, 24-hour exposure, 0 min
  Percent Insecticide Mortality: 0%
Larval blow fly; 50 × 1 mg/kg IP, Day 0, L, 48-hour exposure
  Percent Insecticide Mortality: 0%
Larval blow fly; 50 × 1 mg/kg IP, Day 1, L, 24-hour exposure
  Percent Insecticide Mortality: 10%
Larval blow fly; 50 × 1 mg/kg IP, Day 1, L, 48-hour exposure
  Percent Insecticide Mortality: 10%
Larval blow fly; 50 × 1 mg/kg IP, Day 2, L, 24-hour exposure, 2880 min
  Percent Insecticide Mortality: 20%
Larval blow fly; 50 × 1 mg/kg IP, Day 2, L, 48-hour exposure
  Percent Insecticide Mortality: 20%
Larval blow fly; 50 × 1 mg/kg IP, Day 3, L, 24-hour exposure, 4320 min
  Percent Insecticide Mortality: 20%
Larval blow fly; 50 × 1 mg/kg IP, Day 3, L, 48-hour exposure
  Percent Insecticide Mortality: 20%
Larval blow fly; 50 × 1 mg/kg IP, Day 4, L, 24-hour exposure, 5760 min
  Percent Insecticide Mortality: 10%
Larval blow fly; 50 × 1 mg/kg IP, Day 4, L, 48-hour exposure
  Percent Insecticide Mortality: 20%
Larval blow fly; 50 × 1 mg/kg IP, Day 5, L, 24-hour exposure, 7200 min
  Percent Insecticide Mortality: 10%
Larval blow fly; 50 × 1 mg/kg IP, Day 5, L, 48-hour exposure
  Percent Insecticide Mortality: 25%
Larval blow fly; 50 × 1 mg/kg IR, 35 min, L, 24-hour exposure
  Percent Insecticide Mortality: 0%
Larval blow fly; 50 × 1 mg/kg IR, 35 min, L, 48-hour exposure
  Percent Insecticide Mortality: 0%
Larval blow fly; 50 × 1 mg/kg IR, 5 hr, L, 24-hour exposure
  Percent Insecticide Mortality: 40%
Larval blow fly; 50 × 1 mg/kg IR, 5 hr, L, 48-hour exposure
  Percent Insecticide Mortality: 75%
Larval blow fly; 50 × 1 mg/kg IR, Day 0, L, 24-hour exposure, 0 min
  Percent Insecticide Mortality: 0%
Larval blow fly; 50 × 1 mg/kg IR, Day 0, L, 48-hour exposure
  Percent Insecticide Mortality: 0%
Larval blow fly; 50 × 1 mg/kg IR, Day 1, L, 24-hour exposure
  Percent Insecticide Mortality: 90%
Larval blow fly; 50 × 1 mg/kg IR, Day 1, L, 48-hour exposure
  Percent Insecticide Mortality: 100%
Larval blow fly; 50 × 1 mg/kg IR, Day 2, L, 24-hour exposure, 2880 min
  Percent Insecticide Mortality: 90%
Larval blow fly; 50 × 1 mg/kg IR, Day 2, L, 48-hour exposure
  Percent Insecticide Mortality: 100%
Larval blow fly; 50 × 1 mg/kg IR, Day 3, L, 24-hour exposure, 4320 min
  Percent Insecticide Mortality: 80%
Larval blow fly; 50 × 1 mg/kg IR, Day 3, L, 48-hour exposure
  Percent Insecticide Mortality: 100%
Larval blow fly; 50 × 1 mg/kg IR, Day 4, L, 24-hour exposure, 5760 min
  Percent Insecticide Mortality: 40%
Larval blow fly; 50 × 1 mg/kg IR, Day 4, L, 48-hour exposure
  Percent Insecticide Mortality: 40%
Larval blow fly; 50 × 1 mg/kg IR, Day 5, L, 24-hour exposure, 7200 min
  Percent Insecticide Mortality: 20%
Larval blow fly; 50 × 1 mg/kg IR, Day 5, L, 48-hour exposure
  Percent Insecticide Mortality: 25%
SAW (Southern armyworm); 12.5 ppm
  inhibition at 12.5 ppm: 0%
SAW (Southern armyworm); 25 ppm
  inhibition at 25 ppm: 40%
SAW (Southern armyworm); 50 ppm
  inhibition at 50 ppm: 80%
SAW (Southern armyworm); 100 ppm
  inhibition at 100 ppm: 100%
